Laboratory results as given in ChEMBL document CHEMBL1138083, “Antidyslipidemic activity of furano-flavonoids isolated from Indigofera tinctoria” (2006).
Activity calls are given as the source filed them. The calls are words filed in the database; no cut-off is given here.

How the values were obtained:
Assay type in all cases: functional, Mesocricetus auratus
[1] = system: Syrian golden hamster; assay: Increase in HDL cholesterol to total cholesterol level in hamster at 50 mg/kg, po
[2] = system: Syrian golden hamster; assay: Increase in HDL cholesterol level in hamster at 50 mg/kg, po
[3] = system: Syrian golden hamster; assay: Decrease in total cholesterol level in hamster at 50 mg/kg, po; set-up: scale not given: the % may be the effect or the level left
[4] = system: Syrian golden hamster; assay: Decrease in glycerol level in hamster at 50 mg/kg, po; set-up: scale not given: the % may be the effect or the level left
[5] = system: Syrian golden hamster; assay: Decrease in plasma triglyceride level in hamster at 50 mg/kg, po; set-up: scale not given: the % may be the effect or the level left
[6] = system: Syrian golden hamster; assay: Decrease in free fatty acid in hamster at 50 mg/kg, po; set-up: scale not given: the % may be the effect or the level left
[7] = system: Syrian golden hamster; assay: Increase in free fatty acid in hamster at 50 mg/kg, po

CC(=O)O[C@H]1[C@@H]2c3c(ccc4c(=O)cc(-c5ccccc5)oc34)O[C@@H]2OC1(C)C
Activity [1]: 36% | Activity [2]: 8% | Activity [3]: 19% | Activity [4]: 13% | Activity [5]: 60% | Activity [6]: 25%

CC(=O)O[C@@H]1[C@@H]2c3c(ccc4c(=O)cc(-c5ccccc5)oc34)O[C@@H]2OC1(C)C
Activity [1]: 36% | Activity [2]: 8% | Activity [3]: 19% | Activity [4]: 13% | Activity [5]: 60% | Activity [6]: 25%

CC(=O)OC1C(C)(C)OC(=O)C12COc1ccc3c(=O)cc(-c4ccccc4)oc3c12 (stereo not drawn)
Activity [1]: 26% | Activity [2]: 28% | Activity ([3]; Mesocricetus auratus): inactive | Activity [4]: 6% | Activity [5]: 41% | Activity [7]: 7%
